Laboratory results taken from patent US6737397B1, “Control of cancer growth through the interaction of [MET5]-enkephalin and the zeta receptor” (The Penn State Research Foundation, priority 1996, dated 2004).
Marks after values point to notes of the source that are not given here.

Experiments:
WiDr cells = test: Growth assay (cell counts) of WiDr human colon cancer cells; assay type: cell-based; conditions: 10^−6 M NTX, 48 hr
Description: (§1) HT-29, WiDr, and COLO 205 cell lines were obtained from the American Type Culture Collection (Rockville, Md.). HT-29 cells were grown in McCoy's 5A media (modified), WiDr cells in Minimum Essential Media, and COLO 205 cells in RPMI 1640 media; all media contained 10% fetal calf serum, 2 mM […], 1.2% sodium bicarbonate and antibiotics (11 Units/ml penicillin, 10 μg/ml streptomycin, 10 μg/ml neomycin) in a humidified atmosphere of 7% CO2/93% air at 37° C. In some examples, cultures of HT-29 cells were maintained in McCoy's 5A media without fetal calf serum.
(§2) Cells were seeded at equivalent amounts into 75 cm^2 flasks or into 9.6 cm^2 wells (6-well plates, Falcon) and were counted 24 hr later to determine plating efficiency. Drugs or sterile water were added beginning 24 hr after seeding (=0 hours) and both media and drugs were changed daily. All drugs were prepared in sterile water and dilutions represent final concentrations of the compounds. At appropriate times, cells were harvested with 0.05% trypsin/0.53 mM EDTA, centrifuged, and counted with a hemacytometer at 200×. Cell viability was determined by trypan blue staining. At least 2 aliquots/flask or well were counted and 2 flasks or wells/time point/treatment group were sampled.
(§3) To examine the ubiquity of opioid activity with respect to colon cancer, two other colon cancer cell lines were investigated: COLO 205 and WiDr.

neuroblastoma = conditions: cited from earlier work
ζ-opioid receptor [1] = target: T1, ζ-opioid receptor (Homo sapiens, UniProt Q9NZT2); test: [3H]-[Met5]-enkephalin binding of HT-29 tumor homogenates from nude mice treated with 0.1 mg/kg NTX; parameters: from tissue; host or cells: HT-29 human colon tumor xenografts grown in athymic nude mice; nuclear (P1) and other subcellular fractions
T1 sequence (Q9NZT2 1-677): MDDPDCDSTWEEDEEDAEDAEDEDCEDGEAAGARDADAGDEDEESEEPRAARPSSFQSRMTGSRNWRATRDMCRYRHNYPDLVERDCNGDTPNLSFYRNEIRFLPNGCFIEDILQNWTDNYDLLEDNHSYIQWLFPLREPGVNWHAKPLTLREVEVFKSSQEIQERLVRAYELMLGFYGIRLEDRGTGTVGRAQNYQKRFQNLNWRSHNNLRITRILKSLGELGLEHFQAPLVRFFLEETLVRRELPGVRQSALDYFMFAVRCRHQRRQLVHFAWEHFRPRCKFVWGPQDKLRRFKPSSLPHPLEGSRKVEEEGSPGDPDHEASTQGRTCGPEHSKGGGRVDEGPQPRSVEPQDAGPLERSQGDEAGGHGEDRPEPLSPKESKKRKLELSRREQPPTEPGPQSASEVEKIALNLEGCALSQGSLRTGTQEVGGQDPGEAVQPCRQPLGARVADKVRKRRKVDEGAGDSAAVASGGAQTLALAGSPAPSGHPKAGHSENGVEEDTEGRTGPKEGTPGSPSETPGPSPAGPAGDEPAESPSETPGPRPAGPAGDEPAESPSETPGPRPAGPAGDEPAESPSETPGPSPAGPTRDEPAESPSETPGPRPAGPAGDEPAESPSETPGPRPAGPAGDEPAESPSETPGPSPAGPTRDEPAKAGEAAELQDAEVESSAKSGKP
Description: Endogenous opioid systems regulate growth of neural tumor cells in culture. Brain Res. 490:1313-1318 (1988)].
Receptor binding data were analyzed with a Lundon (Saturation Isotherm Binding Analysis) computer program (Lundon Software, Cleveland, Ohio). This analysis utilizes non-linear least squares regression. Saturation curves and Scatchard plots were computed and plotted directly by this program.

ζ-opioid receptor [2] = target: T1, ζ-opioid receptor; test: Competition for binding of [3H][Met5]enkephalin (4.0 nM) in nuclear homogenates of HT-29 human colon tumors; parameters: from tissue; host or cells: HT-29 human colon tumor xenografts grown in athymic nude mice; nuclear (P1) and other subcellular fractions
COLO 205 cells = test: Growth assay (cell counts) of COLO 205 human colon cancer cells; assay type: cell-based; conditions: 10^−6 M NTX, 48 hr
Description: as §1, §2, §3

HT-29 cells = test: Growth assay (cell counts) of HT-29 human colon cancer cells in culture; assay type: cell-based
Description: In some examples, cultures of HT-29 cells were maintained in McCoy's 5A media without fetal calf serum.
as §2

[3] = system: HT-29 human colon cancer cells; test: HT-29 human colon tumor xenografts in nude mice treated with 0.1 mg/kg naltrexone; assay type: in vivo
Description: HT-29 human colon cancer cells, purchased from the American Type Culture Collection (Rockville, Md.), were grown in McCoy's 5A Modified Medium containing 10% fetal calf serum, L-glutamine (2 mM), penicillin (10 units/ml), and streptomycin ([…]) in an atmosphere of 7% CO2 at 37° C. Cell viability was determined by the trypan blue exclusion test. Five- to six-week-old male athymic nude mice, obtained from the National Cancer Institute (Frederick, Md.), were injected subcutaneously over the right shoulder with 1×10^6 log phase HT-29 cells in a 0.5 ml suspension of McCoy's media. The day of tumor cell inoculation was considered day 0. The mice were evaluated daily and the date that the tumor became palpable was recorded. The time of “initial” appearance of a tumor was considered to be the day when tumor volume was 5 mm^3 or larger. Individual tumors were measured with vernier calipers every 2 days. Measurements of the two largest perpendicular dimensions were recorded and tumors volume was calculated using the formula: length×(width)^2×0.5 [Osieka, R., D. P. Houchens, and A. Goldin. Chemotherapy of human colon cancer xenografts in athymic nude mice. Cancer 40:2640-2650, (1977)]. All mice were euthanized and necropsied 50 days after tumor cell inoculation. Tumor tissue for receptor binding assays and radioimmunoassays was rapidly frozen in liquid nitrogen and stored at −70° C. until assayed.
Treatment was initiated on the day of tumor cell inoculation. […] Animals were weighed-weekly and appropriate dosage adjustments made.
Latencies until tumor appearance were analyzed using one-way analysis of variance; subsequent comparisons were made with the Newman-Keuls test. The number of mice developing tumors was expressed as a ratio of the total number of mice in the group. Comparisons between groups were made with chi-square tests.
The growth of tumors was compared for each mouse beginning on the day of initial tumor appearance and every 3 days thereafter until the termination of the experiment. Tumor measurements on these days were analyzed using one-way analysis of variance and Newman-Keuls test. Body weights were compared with a two-factor analysis of variance.

O=C1CC[C@@]2(O)[C@H]3Cc4ccc(O)c5c4[C@@]2(CCN3CC2CC2)[C@H]1O5 [naltrexone]
more cells than control cultures (WiDr cells): 68% | duration of opioid receptor blockade (neuroblastoma; 0.1 mg/kg single daily injection): 4-6 h/day | course of tumorigenesis and survival (neuroblastoma; chronic receptor blockade: 10 mg/kg per day or 0.1 mg/kg 4 times daily): accelerated the course of tumorigenesis and shortened survival | tumor effect (e.g. tumor incidence) (neuroblastoma; single daily injection of 0.1 mg/kg): antitumor effect | binding affinity (Kd) versus control levels (ζ-opioid receptor [1]; 0.1 mg/kg naltrexone): did not differ | binding capacity (Bmax) decreased from control values (ζ-opioid receptor [1]; 0.1 mg/kg naltrexone): 6.6 fold | Bmax, fmol/mg protein (ζ-opioid receptor [1]; tumors from mice treated with 0.1 mg/kg NTX): 52.9 ± 12.1 fmol/mg protein | IC50 (ζ-opioid receptor [2]; 4.0 nM [3H][Met5]enkephalin, read-out: IC50): 90.5 ± 3.5 nM | Ki (ζ-opioid receptor [2]; calculated from IC50 by Cheng and Prusoff, read-out: KI): 69.6 ± 2.7 nM | more cells than control cultures (COLO 205 cells): 76% | effect on cell growth in serum-free media (HT-29 cells): significant increase in cell number | increase in cell number compared to control cultures (HT-29 cells; 10^−6 M NTX, 12 hr): 38% | Number of mice with tumors 19 days after inoculation ([3]; 0.1 mg/kg NTX daily): 3/10** | Number of mice with tumors 36 days after inoculation ([3]; 0.1 mg/kg NTX daily): 6/10* | Number of mice with tumors 50 days after inoculation ([3]; 0.1 mg/kg NTX daily): 8/10 | Latency (days) for initial tumor appearance ([3]; 0.1 mg/kg NTX daily s.c.): 23.1 ± 2.9 days | Latency (days) for initial tumor appearance (Range) ([3]; 0.1 mg/kg NTX daily s.c.): (14-37) days | Latency (days) for palpable tumor ([3]; 0.1 mg/kg NTX daily s.c. from inoculation): 17.0 ± 2.8 days | behavioral differences (e.g. hyperactivity) versus control ([3]; 0.1 mg/kg naltrexone): no behavioral differences | interval between palpable tumors and initial tumor appearance versus control ([3]; 0.1 mg/kg naltrexone): similar | mean latency prior to palpable tumor appearance increased compared to control ([3]; 0.1 mg/kg naltrexone): 2.4 fold | range in latency until initial tumor appearance greater than control ([3]; 0.1 mg/kg naltrexone): up to 2 fold | size of tumors after initial tumor appearance versus control ([3]; 0.1 mg/kg naltrexone): did not differ | body weights versus control animals ([3]; 0.1 mg/kg naltrexone, throughout the experiment): comparable | mice with tumors ([3]; day 36, 0.1 mg/kg): 60% | mice that still did not have tumors ([3]; day 50, 0.1 mg/kg): 20% | mice with tumors of 5 mm^3 or larger ([3]; nineteen days after inoculation, 0.1 mg/kg): 30% | number of mice with palpable tumors ([3]; ten days after tumor cell inoculation, 0.1 mg/kg): 2
